Biological target: T1, Bile acid receptor (Homo sapiens, UniProt Q96RI1)
T1 sequence (Q96RI1 whole entry): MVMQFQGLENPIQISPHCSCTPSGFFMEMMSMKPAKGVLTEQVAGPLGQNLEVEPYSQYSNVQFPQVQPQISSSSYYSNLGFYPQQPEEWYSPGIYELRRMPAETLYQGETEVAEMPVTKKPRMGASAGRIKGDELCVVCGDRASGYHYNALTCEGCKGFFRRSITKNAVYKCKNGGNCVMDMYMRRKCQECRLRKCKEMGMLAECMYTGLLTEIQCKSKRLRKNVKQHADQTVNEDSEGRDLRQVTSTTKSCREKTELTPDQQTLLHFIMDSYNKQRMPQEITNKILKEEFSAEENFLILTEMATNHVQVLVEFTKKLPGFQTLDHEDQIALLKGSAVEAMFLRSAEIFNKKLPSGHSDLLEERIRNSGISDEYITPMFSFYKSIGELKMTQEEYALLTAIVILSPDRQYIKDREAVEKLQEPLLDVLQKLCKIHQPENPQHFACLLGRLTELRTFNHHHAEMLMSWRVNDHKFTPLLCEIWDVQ
Assay: HTRF Coactivator Recruitment Assay
Settings: pH 7; 4 °C
Description: To each well of a 96-well assay plate, assay buffer was added containing purified GST-FXR, Eu-labeled anti-GST antibody (Perkin-Elmer), streptavidin-XL665 (Packard Instruments), biotin-tagged SRC-1 fragment. The binding reaction was initiated by the addition of compound.

Row | SMILES | EC50
1 | C[C@]12CCC(C(=O)O)=CC1=CCC1C2CC[C@@]2(C)C1CC[C@@H]2C(=O)c1ccc(O)cc1 (some centres not stated) [MFA-1] | 16.9 nM
2 | C[C@]12CCC(C(=O)O)=CC1=CCC1C2CC[C@@]2(C)C1CC[C@@H]2C(=O)c1ccccc1 (some centres not stated) [MFA-2] | 509 nM

Source: BindingDB's records for doi:10.1073/pnas.0710981105 (Merck Research Laboratories, 2008)
